19 compounds from PubChem BioAssay AID200 (DTP/NCI, 2004) can be followed below.

Several values for one entry are separate records, joined by “and”; a condition that tells them apart may be missing. Identical values can stand only once. Toxic doses and inconclusive results are not listed.

For this assay, the system named is B6C3F1 mice, B16 melanoma ip, median survival T/C. As to the kind of experiment: NCI In Vivo Anticancer Drug Screen. Data for tumor model B16 Melanoma (intraperitoneal) in B6C3F1 mice. The following applies: endpoint: median survival time, higher = longer survival. Put shortly:
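Values are T/C ratios: the measurement in treated animals divided by that in vehicle-treated controls, using survival or tumor size in mice carrying transplantable tumors.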

The mark [1] stands for this setting: dose: 12.5 mg/kg/injection, schedule: Q01DX009 (ip), vehicle: saline.
The mark [2] stands for this setting: dose: 25.0 mg/kg/injection, schedule: Q01DX009 (ip), vehicle: saline.
The mark [3] stands for this setting: dose: 50.0 mg/kg/injection, schedule: Q01DX009 (ip), vehicle: saline.
Setting [4] is: dose: 100.0 mg/kg/injection, schedule: Q01DX009 (ip), vehicle: saline.
[5] abbreviates: dose: 200.0 mg/kg/injection, schedule: Q01DX009 (ip), vehicle: saline.
The mark [6] stands for this setting: dose: 400.0 mg/kg/injection, schedule: Q01DX009 (ip), vehicle: saline.
The mark [7] stands for this setting: dose: 25.0 mg/kg/injection, schedule: Q01DX009 (ip), vehicle: Klucel (hydroxypropylcellulose) (HPC).
Where [8] appears, read: dose: 50.0 mg/kg/injection, schedule: Q01DX009 (ip), vehicle: Klucel (hydroxypropylcellulose) (HPC).
[9] abbreviates: dose: 100.0 mg/kg/injection, schedule: Q01DX009 (ip), vehicle: Klucel (hydroxypropylcellulose) (HPC).
The mark [10] stands for this setting: dose: 200.0 mg/kg/injection, schedule: Q01DX009 (ip), vehicle: Klucel (hydroxypropylcellulose) (HPC).
[11] abbreviates: dose: 1.25 mg/kg/injection, schedule: Q01DX009 (ip), vehicle: saline.
Where [12] appears, read: dose: 2.5 mg/kg/injection, schedule: Q01DX009 (ip), vehicle: saline.
[13] abbreviates: dose: 25.0 mg/kg/injection, schedule: Q01DX009 (ip), vehicle: saline with Tween-80.
Setting [14] is: dose: 50.0 mg/kg/injection, schedule: Q01DX009 (ip), vehicle: saline with Tween-80.
The mark [15] stands for this setting: dose: 100.0 mg/kg/injection, schedule: Q01DX009 (ip), vehicle: saline with Tween-80.
[16] abbreviates: dose: 200.0 mg/kg/injection, schedule: Q01DX009 (ip), vehicle: saline with Tween-80.
Setting [17] is: dose: 400.0 mg/kg/injection, schedule: Q01DX009 (ip), vehicle: saline with Tween-80.
The mark [18] stands for this setting: dose: 1.25 mg/kg/injection, schedule: Q01DX009 (ip), vehicle: saline with Tween-80.

For `COc1cccc2c1C(=O)c1c(O)c3c(c(O)c1C2=O)C[C@@](O)(/C(C)=N/NC(N)=S)C[C@@H]3OC1CC(N)C(O)C(C)O1` (some centres undefined), the T/C (dose: 12.5 mg/kg/injection, schedule: Q01DX001 (ip), vehicle: water) is 155 % of control and 166 % of control; the T/C (dose: 25.0 mg/kg/injection, schedule: Q01DX001 (ip), vehicle: water) was 185 % of control and 202 % of control; the T/C (dose: 50.0 mg/kg/injection, schedule: Q01DX001 (ip), vehicle: water) is 185 % of control and 220 % of control; the T/C (dose: 100.0 mg/kg/injection, schedule: Q01DX001 (ip), vehicle: water) is 201 % of control.
For the compound `Cc1ccccc1CN1C2=NCCN2C(=O)C2=C1CCN(S(=O)(=O)c1ccc(Cl)c(S(N)(=O)=O)c1)C2`, the T/C is, setting by setting: under setting [1], 101 % of control; under setting [2], 101 % of control; under setting [3], 95 % of control; under setting [4], 90 % of control; under setting [5], 92 % of control; under setting [6], 90 % of control.
`O=c1[nH]cnc2c1cnn2CN1CCOCC1`: the T/C was 98 % of control and 99 % of control under setting [7]; 100 % of control and 102 % of control under setting [8]; 123 % of control and 100 % of control under setting [9]; 99 % of control under setting [10].
For the compound `CN(C)c1ccc(C(=C2C=CC(=[N+](C)C)C=C2)c2ccc(N(C)C)cc2)cc1` (tested in a mixture with another compound), the T/C by setting is: (dose: 0.62 mg/kg/injection, schedule: Q01DX009 (ip), vehicle: saline) 95 % of control; under setting [11], 105 % of control; under setting [12], 104 % of control.
`O=[N+]([O-])c1nccn1CC(O)CO` (centres undefined): the T/C reads like this: under setting [1], 91 % of control and 101 % of control; under setting [2], 102 % of control and 107 % of control; under setting [3], 95 % of control and 97 % of control; under setting [4], 111 % of control and 93 % of control; under setting [5], 95 % of control and 98 % of control; under setting [6], 91 % of control and 107 % of control.
With `COc1cc(NS(C)(=O)=O)ccc1Nc1c2ccc(Cl)cc2nc2c(OC)cccc12`, the T/C by setting is: (dose: 2.0 mg/kg/injection, schedule: Q01DX005 (ip), vehicle: water) 165 % of control; (dose: 2.0 mg/kg/injection, schedule: Q01DX005 (iv), vehicle: water) 111 % of control; (dose: 4.0 mg/kg/injection, schedule: Q01DX001 (iv), vehicle: water) 101 % of control; (dose: 4.0 mg/kg/injection, schedule: Q01DX005 (ip), vehicle: water) 174 % of control; (dose: 8.0 mg/kg/injection, schedule: Q01DX001 (iv), vehicle: water) 102 % of control; (dose: 8.0 mg/kg/injection, schedule: Q01DX005 (ip), vehicle: water) 178 % of control. For the same compound, under “dose: 16.0 mg/kg/injection, schedule: Q01DX001 (iv), vehicle: water”, the T/C was 100 % of control.
With `CN(C)C(=O)SC1=C(c2c(Cl)cccc2Cl)C(=O)c2ccccc21`, the T/C runs as follows: under setting [7], 98 % of control; under setting [8], 96 % of control; under setting [9], 101 % of control; under setting [10], 101 % of control.
For `CCCCCCCC(=O)N/N=C(\CO)[C@]1(O)Cc2c(O)c3c(c(O)c2[C@@H](OC2CC(N)C(O)C(C)O2)C1)C(=O)c1c(OC)cccc1C3=O` (some centres undefined), the T/C runs as follows: (dose: 1.5 mg/kg/injection, schedule: Q01DX009 (ip), vehicle: saline) 154 % of control; (dose: 1.5 mg/kg/injection, schedule: Q01DX009 (ip), vehicle: water) 171 % of control; (dose: 3.0 mg/kg/injection, schedule: Q01DX009 (ip), vehicle: saline) 196 % of control; (dose: 3.0 mg/kg/injection, schedule: Q01DX009 (ip), vehicle: water) 199 % of control; (dose: 6.0 mg/kg/injection, schedule: Q01DX009 (ip), vehicle: saline) 216 % of control; (dose: 6.0 mg/kg/injection, schedule: Q01DX009 (ip), vehicle: water) 320 % of control. The T/C was 208 % of control (dose: 12.0 mg/kg/injection, schedule: Q01DX009 (ip), vehicle: saline); 320 % of control (dose: 12.0 mg/kg/injection, schedule: Q01DX009 (ip), vehicle: water); 208 % of control (dose: 24.0 mg/kg/injection, schedule: Q01DX009 (ip), vehicle: saline).
`Nc1ccn(C2OC(CO)C(O)C2O)c(=O)n1` (centres undefined): the T/C by setting is: under setting [2], 120 % of control; (dose: 2400.0 mg/kg/injection, schedule: Q01DX009 (ip), vehicle: saline with Tween-80) 110 % of control.
As for `COc1ccc(NC(=O)Oc2ccc3c(C)cc(=O)oc3c2)c(OC)c1`, the T/C under setting [13] was 99 % of control; the T/C under setting [14] was 94 % of control; the T/C under setting [15] is 99 % of control; the T/C under setting [16] is 100 % of control; the T/C under setting [17] is 98 % of control.
Take `CCN1/C(=C/C=C/C=C\C=C\c2sc3ccc4ccccc4c3[n+]2CC)Sc2ccc3ccccc3c21`: the T/C runs as follows: under setting [18], 101 % of control; under setting [11], 124 % of control; (dose: 2.5 mg/kg/injection, schedule: Q01DX009 (ip), vehicle: saline with Tween-80) 94 % of control; under setting [12], 123 % of control.
Turning to `CC(C)([NH-])CO.CC(C)([NH-])CO.[Cl][Cd][Cl]`, the T/C is 90 % of control (dose: 0.31 mg/kg/injection, schedule: Q01DX009 (ip), vehicle: saline with Tween-80); 89 % of control (dose: 0.63 mg/kg/injection, schedule: Q01DX009 (ip), vehicle: saline with Tween-80); 87 % of control under setting [18].
`CC1=C(O)C(=O)[C@@H]2O[C@@H]2C1=O`: the T/C by setting is: (dose: 0.78 mg/kg/injection, schedule: Q01DX009 (ip), vehicle: saline) 87 % of control and 92 % of control; (dose: 1.56 mg/kg/injection, schedule: Q01DX009 (ip), vehicle: saline) 91 % of control and 98 % of control; (dose: 3.12 mg/kg/injection, schedule: Q01DX009 (ip), vehicle: saline) 103 % of control; (dose: 3.13 mg/kg/injection, schedule: Q01DX009 (ip), vehicle: saline) 107 % of control; (dose: 6.25 mg/kg/injection, schedule: Q01DX009 (ip), vehicle: saline) 112 % of control and 94 % of control; under setting [1], 108 % of control and 106 % of control.
As to `Nc1n[n+](-c2ccc(Cl)cc2)no1`, the T/C (dose: 3.12 mg/kg/injection, schedule: Q01DX009 (ip), vehicle: water) is 109 % of control; the T/C (dose: 6.25 mg/kg/injection, schedule: Q01DX009 (ip), vehicle: water) is 102 % of control and 107 % of control; the T/C (dose: 12.5 mg/kg/injection, schedule: Q01DX009 (ip), vehicle: water) is 103 % of control; the T/C (dose: 25.0 mg/kg/injection, schedule: Q01DX009 (ip), vehicle: water) is 111 % of control and 123 % of control; the T/C (dose: 50.0 mg/kg/injection, schedule: Q01DX009 (ip), vehicle: water) is 116 % of control.
For `COc1nc2c(=O)[nH]c(N)nc2n1C1OC(CO)C(O)C1O` (centres undefined), the T/C by setting is: under setting [15], 96 % of control; under setting [16], 93 % of control; under setting [17], 91 % of control.
As for `O=C1CN(Cc2ccc3c(c2)OCO3)NO1`, the T/C is, setting by setting: (dose: 6.25 mg/kg/injection, schedule: Q01DX009 (ip), vehicle: saline with Tween-80) 103 % of control and 106 % of control; (dose: 12.5 mg/kg/injection, schedule: Q01DX009 (ip), vehicle: saline with Tween-80) 109 % of control and 95 % of control; under setting [13], 112 % of control and 107 % of control; under setting [14], 115 % of control and 117 % of control; under setting [15], 115 % of control.
For `O=C1CCCCCC2=NC12` (centres undefined), the T/C (dose: 6.25 mg/kg/injection, schedule: Q01DX009 (ip), vehicle: Klucel (hydroxypropylcellulose) (HPC)) was 95 % of control; the T/C (dose: 12.5 mg/kg/injection, schedule: Q01DX009 (ip), vehicle: Klucel (hydroxypropylcellulose) (HPC)) was 91 % of control; the T/C under setting [7] is 87 % of control; the T/C under setting [8] was 98 % of control.
In the case of `CCCC(NC(=O)OCc1ccccc1)C(=O)O` (centres undefined), the T/C under setting [15] was 92 % of control and the T/C under setting [16] was 90 % of control.
Consider `O=C1c2c(O)cccc2-c2nn(CCNCCO)c3ccc(NCCNCCO)c1c23`, for which the T/C runs as follows: (dose: 2.75 mg/kg/injection, schedule: Q01DX009 (ip), vehicle: water) 250 % of control; (dose: 5.5 mg/kg/injection, schedule: Q01DX009 (ip), vehicle: water) 158 % of control.
